From ChEMBL document CHEMBL1240326, “ATP non-competitive IGF-1 receptor kinase inhibitors as lead anti-neoplastic and anti-papilloma agents” (Eur J Pharmacol, 2007)

How the values were obtained:
[1] = target: Proto-oncogene tyrosine-protein kinase Src (Homo sapiens, UniProt P12931); experiment: Inhibition of human GST-fused Src-mediated Poly Glu4Tyr phosphorylation by ELISA
cells = conditions: Homo sapiens, HF1, 48 h
Description: Growth inhibition of human HF1 cells transfected with HPV16 after 48 hrs by micro culture methylene blue assay

Keratinocyte = experiment: cells; conditions: Homo sapiens, 72 h
Description: Growth inhibition of human primary keratinocytes after 72 hrs by micro culture methylene blue assay

Sequence of Proto-oncogene tyrosine-protein kinase Src (P12931 2-536 limits assumed): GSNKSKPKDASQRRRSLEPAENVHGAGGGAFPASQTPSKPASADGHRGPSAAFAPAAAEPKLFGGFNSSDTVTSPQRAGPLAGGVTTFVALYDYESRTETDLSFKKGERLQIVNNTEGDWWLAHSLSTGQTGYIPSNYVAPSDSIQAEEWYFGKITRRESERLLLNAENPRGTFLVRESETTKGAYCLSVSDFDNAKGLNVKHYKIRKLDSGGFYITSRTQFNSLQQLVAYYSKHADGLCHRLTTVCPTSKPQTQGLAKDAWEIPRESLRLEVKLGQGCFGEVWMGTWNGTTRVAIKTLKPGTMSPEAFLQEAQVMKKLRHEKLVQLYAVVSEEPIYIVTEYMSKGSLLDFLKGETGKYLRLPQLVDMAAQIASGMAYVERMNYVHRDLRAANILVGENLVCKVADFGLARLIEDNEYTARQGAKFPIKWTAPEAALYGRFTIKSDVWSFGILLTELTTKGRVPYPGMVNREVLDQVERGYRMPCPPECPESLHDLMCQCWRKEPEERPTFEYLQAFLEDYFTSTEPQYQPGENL

Row | Structure (SMILES) | IC50 [1] [µM] | IC50 (cells) [µM] | IC50 (Keratinocyte) [µM]
1 | Oc1ccc(CNc2ccc3c(c2)OCO3)cc1O | 1.86 | 170 | 73
2 | Oc1ccc(CN(Cc2ccc(O)c(O)c2)c2ccc3c(c2)OCO3)cc1O | 0.83 | 106 | 18
3 | N#C/C(=C\c1ccc(O)c(O)c1)C(=O)c1ccc(O)c(O)c1 | – | 390 | –
